Test results from article PMC13095408, “DBeQ derivative targets vacuolar protein sorting 4 functions in cancer cells and suppresses tumor growth in mice” (The Journal of Pharmacology and Experimental Therapeutics, 2025).

Key:
[1] = test system: GFP-CHMP4B-expressing U2OS cells; experiment: GFP-CHMP4B accumulation cell-based assay (high-content microscopy)
Protocol: Plates were then scanned using the 20× objective for 1 hour with ≥100 cells/well across 6 fields/well. […] For all other assays, the cells were cultured overnight in black glass-bottom 96-well plates (Cellvis; P96-1.5H-N) then stained, rinsed, and treated with SM containing the indicated compounds (0.1% DMSO or 0.1% DMSO/0.1% ethanol [vehicle] final). Plates were scanned using the 20× NA .70 objective at the indicated intervals with ≥ 300 cells/well across 3 fields/well. […]

VPS4B = molecular target: T1, VPS4B (Homo sapiens, UniProt O75351); experiment: VPS4B ATPase activity, EnzChek Phosphate assay; format: biochemical; set-up: His tag (pET28a vector-encoded) (N); made in house; host or cells: Escherichia coli BL21(DE3)
T1 sequence (O75351 1-444): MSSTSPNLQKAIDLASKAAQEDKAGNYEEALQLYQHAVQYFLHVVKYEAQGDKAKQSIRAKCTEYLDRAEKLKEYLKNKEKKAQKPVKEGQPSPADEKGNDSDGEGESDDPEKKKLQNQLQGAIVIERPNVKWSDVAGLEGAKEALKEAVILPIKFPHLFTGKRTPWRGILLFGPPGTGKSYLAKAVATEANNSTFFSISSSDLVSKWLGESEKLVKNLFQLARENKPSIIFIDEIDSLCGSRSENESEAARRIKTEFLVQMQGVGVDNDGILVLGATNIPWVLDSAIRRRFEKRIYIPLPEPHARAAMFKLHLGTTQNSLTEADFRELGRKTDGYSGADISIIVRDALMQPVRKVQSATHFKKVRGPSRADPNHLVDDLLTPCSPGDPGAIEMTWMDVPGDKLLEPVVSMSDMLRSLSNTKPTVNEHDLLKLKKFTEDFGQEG
Protocol: VPS4B and VCP ATPase activities were measured using the EnzChek Phosphate assay for the quantification of released phosphate. Assay buffers were based on literature precedents ([Cupido et al, 2019], [2021]) as follows: VPS4B buffer (20 mM HEPES-KOH, pH 7.4, 25 mM KOAc, 2 mM MgCl2, 5 mM (NH4)2SO4, 0.5 mM CaCl2, 2.5 mM DTT, 0.1 mg/mL BSA, 0.005% v/v Triton X-100), VCP buffer (20 mM HEPES-NaOH, pH 7.4, 20 mM NaCl, 10 mM MgCl2, 5 mM (NH4)2SO4, 0.5 mM CaCl2, 2.5 mM DTT, 0.1 mg/mL BSA, 0.005% v/v Triton X-100). In black clear-bottom 384-well plates, 22.5 μL of 5% DMSO or 40× test compounds diluted in the respective assay buffer was added to each well. ATPases were diluted to 1 μM in the respective buffers containing 2× EnzChek Phosphate assay coupling reagents of 400 μM MESG and 2 U of PNP, then 25 μL was added to each well. Plates were mixed at 1000 rpm for 30 minutes at RT while being protected from light. The reaction was initiated by adding 2.5 μL of 20 mM MgATP or water followed by mixing at 1200 rpm for 30 seconds at RT. Plates were measured at 360 nm using a CLARIOstar plate reader (BMG LABTECH) for 20 minutes at 37 °C. ATPase activity was calculated as the amount of phosphate released over a 5-minute interval under linear initial velocity conditions. The remaining ATPase activity was calculated by normalizing compound-treated activity values to the DMSO control. IC50 was calculated by fitting normalized values to a sigmoidal dose-response curve with Hill slope = −1 using Graph Pad Prism 10.0.
To identify VPS4i, we developed enzyme- and cell-based VPS4 functional assays to serve as VPS4i-screening platforms. For the enzyme-based assay, we used the colorimetric EnzChek Phosphate assay that detects free phosphate with the advantage of continuous measurement of ATP hydrolysis over time. […] Due to the high sequence and structural similarity of AAA-ATPases, we also established a VCP ATPase assay to evaluate hit selectivity. […] For the cell-based assay, our approach was based on how VPS4 inhibition causes the accumulation of ESCRT-III ([Babst et al, 1998]; [Katoh et al, 2003]). We used an N-terminal GFP-tagged CHMP4B reporter system because it is the most abundant ESCRT-III subunit ([Katoh et al, 2004]; [Teis et al, 2008]). Our aim was to test compounds under short-term serum and amino acid starvation to stimulate ESCRT activity for easier detection of inhibitors ([Takahashi et al, 2018], [2019]). […] Overall, we established 2 systems for VPS4i screening, a VPS4B ATPase activity assay and a GFP-CHMP4B accumulation cell-based assay.

[2] = screened at 1 µM, mean ± S.D., Supplemental Table 2
[3] = screened at 5 µM, mean ± S.D., Supplemental Table 2
[4] = screened at 1 μM, starvation media, 1 hour, foci intensity per cell normalized to 4-107, mean ± SD, Table 1
[5] = remaining ATPase activity, screened at 5 μM, mean ± SD, Table 1

Compound | VPS4B ATPase (% DMSO) (VPS4B; [3]) | VPS4B ATPase (% DMSO) (VPS4B; [5]) | GFP-CHMP4B (% 4-107) [1, 2] [% 4-107] | GFP-CHMP4B (% 4-107) [1, 4] [% 4-107]
COc1ncnc2c1ccn2-c1nc(NCCc2cccnc2)c2cccc(OC)c2n1 [Compound 5-65] | 89.36 ± 2.84 | – | 1.69 ± 0.46 | –
COc1cccc2c(NCc3ccccc3)nc(Nc3ccc4scnc4c3)nc12 [Compound 5-67] | 51.60 ± 0.35 | – | 1.60 ± 0.33 | –
COc1cccc2c(NCc3ccccc3)nc(Nc3ccc4ncsc4c3)nc12 [Compound 5-69] | 51.27 ± 1.54 | – | 2.10 ± 1.22 | –
COc1cccc2c(NCCc3ccccc3)nc(NCc3ccccc3)nc12 [Compound 5-73] | 41.71 ± 2.35 | – | 5.34 ± 1.17 | –
COc1cccc2c(NCc3ccccc3)nc(NCCc3ccccc3)nc12 [Compound 5-75] | 45.53 ± 1.40 | – | 2.25 ± 1.07 | –
COc1cccc2c(NCc3ccccc3)nc(Nc3ccc4ccccc4c3)nc12.Cl [Compound 5-79] | 76.35 ± 3.47 | – | 3.40 ± 0.70 | –
COc1cccc2c(NCc3ccccc3)nc(N[C@@H](C)c3ccccc3)nc12 [Compound 5-81] | 43.91 ± 0.05 | – | 7.65 ± 7.10 | –
COc1cccc2c(NCCc3ccccc3)nc(N[C@@H](C)c3ccccc3)nc12 [Compound 5-83] | 42.92 ± 3.93 | – | 1.83 ± 1.02 | –
COc1cccc2c(NCc3ccccc3)nc(N[C@H](C)c3ccccc3)nc12 [Compound 5-89] | 46.68 ± 2.80 | – | 9.13 ± 2.82 | –
COc1cccc2c(NCCc3ccccc3)nc(N[C@H](C)c3ccccc3)nc12 [Compound 5-91] | 40.44 ± 0.01 | – | 1.69 ± 0.12 | –
COc1cccc2c(NCc3ccccc3)nc(N[C@@H](C)c3ccc4ccccc4c3)nc12 [Compound 5-93] | 58.00 ± 2.01 | – | 5.34 ± 4.29 | –
COc1cccc2c(NCc3ccccc3)nc(N[C@H](C)c3ccc4ccccc4c3)nc12 [Compound 5-95] | 42.87 ± 1.98 | – | 2.43 ± 1.04 | –
COc1cccc2c(NCCc3ccccc3)nc(N[C@@H](C)c3ccc4ccccc4c3)nc12 [Compound 5-97] | 49.73 ± 0.04 | – | 1.82 ± 0.02 | –

The next lines start with results.

VPS4B ATPase (% DMSO) (VPS4B; [3]) | VPS4B ATPase (% DMSO) (VPS4B; [5]) | Compound | GFP-CHMP4B (% 4-107) [1, 2] [% 4-107] | GFP-CHMP4B (% 4-107) [1, 4] [% 4-107]
45.77 ± 2.14 | – | COc1cccc2c(NCCc3ccccc3)nc(N[C@H](C)c3ccc4ccccc4c3)nc12 [Compound 5-99] | 3.40 ± 1.02 | –
49.27 ± 0.19 | – | COc1cccc2c(NCc3ccccc3)nc(N[C@@H](C)c3cccc4ccccc34)nc12 [Compound 5-101] | 2.43 ± 1.02 | –
45.60 ± 2.79 | – | COc1cccc2c(NCc3ccccc3)nc(N[C@H](C)c3cccc4ccccc34)nc12 [Compound 5-103] | 4.36 ± 1.56 | –
56.25 ± 2.23 | – | COc1cccc2c(NCc3ccccc3)nc(NCc3nc4ccccc4s3)nc12 [Compound 5-105] | 1.30 ± 1.20 | –
75.99 ± 2.63 | – | COc1cccc2c(NCCc3ccccc3)nc(NCc3nc4ccccc4s3)nc12 [Compound 5-107] | 0.24 ± 0.08 | –
53.27 ± 1.65 | – | COc1ccc2cccc(Nc3nc(NCc4ccccc4)c4cccc(OC)c4n3)c2c1 [Compound 5-119] | 2.49 ± 0.70 | –
63.24 ± 0.19 | – | COc1cccc2c(NCc3ccccc3)nc(Nc3cccc4cc5ccccc5cc34)nc12 [Compound 5-129] | 1.25 ± 0.86 | –
86.66 ± 2.70 | – | COC(=O)c1cccc2c1ccn2-c1nc(NCc2ccccc2)c2cccc(OC)c2n1 [Compound 5-135] | 4.63 ± 2.05 | –
96.09 ± 2.11 | – | COc1cccc2c(NCc3ccccc3)nc(-n3ccc4c(C(=O)O)cccc43)nc12 [Compound 5-137] | 2.21 ± 0.41 | –
90.05 ± 5.58 | – | COc1cccc2c(NCc3ccccc3)nc(-n3ccc4c(C(N)=O)cccc43)nc12 [Compound 5-139] | 1.75 ± 0.11 | –
86.38 ± 2.37 | 86.38 ± 2.37 | O=[N+]([O-])c1cccc2c(NCc3ccccc3)nc(NCc3ccccc3)nc12 [Compound 5] | 15.05 ± 0.55 | 15.05 ± 0.55
46.29 ± 0.61 | – | COc1cccc2c(NCc3ccccc3)nc(NCc3cccc(OC(F)(F)F)c3)nc12 [Compound 7-11] | 22.15 ± 1.19 | –
39.86 ± 1.36 | – | COc1cccc2c(NCc3ccccc3)nc(NC(c3ccc(F)cc3)c3ccc(F)cc3)nc12 [Compound 7-13] | 12.60 ± 1.04 | –
37.77 ± 2.37 | – | COc1cccc2c(NCc3ccccc3)nc(NC(c3ccccc3)c3ccccc3)nc12 [Compound 7-23] | 23.20 ± 6.42 | –
43.86 ± 1.20 | 43.86 ± 1.20 | COc1ccc2nc(NCc3ccccc3)nc(NCc3ccccc3)c2c1 [Compound 7] | 8.92 ± 2.87 | 8.92 ± 2.87
82.10 ± 2.19 | 82.10 ± 2.19 | COC(=O)c1ccc2ccn(-c3nc(NCc4ccccc4)c4cccc(OC)c4n3)c2c1 [Compound 8] | 1.38 ± 0.73 | 1.38 ± 0.73
49.12 ± 2.89 | 49.12 ± 2.89 | COc1cccc2c(NCc3ccccc3)nc(-c3cccc4ccccc34)nc12 [Compound 10] | 3.97 ± 0.16 | 3.97 ± 0.16
30.39 ± 0.43 | 30.39 ± 0.43 | COc1cccc2c(NCc3ccccc3)nc(NCc3ccc4ccccc4c3)nc12 [Compound 12] | 10.42 ± 6.42 | 10.42 ± 6.42
42.10 ± 0.26 | 42.10 ± 0.26 | COC(=O)c1cccc(CNc2nc(NCc3ccccc3)c3cccc(OC)c3n2)c1 [Compound 14] | 13.39 ± 9.03 | 13.39 ± 9.03
